In US9358228B2, “Therapeutic combinations of netupitant and palonosetron” (Helsinn Healthcare SA, priority 2011, dated 2016):

What was measured:
Format in all cases: in vivo, rat
[1] = test system: acetic acid (AA)-induced colonic hypersensitivity in a rodent model; assay: Colonic sensitivity assessment: visceromotor response to colorectal distension after acetic acid infusion; settings: rats; for inhibition of AA-induced colonic hypersensitivity, agent alone: oral, effective dose not given (0.001-1 mg/kg dosed); for effect of 0.001 mg/kg dose alone on colonic and somatic sensitivity: 0.001 mg/kg p.o., agent alone
Description: Induction of Acute Visceral and Somatic Hypersensitivity: Visceral and somatic hypersensitivity were induced by infusing dilute (1.5 ml at 0.6%) acetic acid (AA) into the rat colon via a catheter (Intramedic PE 90 tubing) inserted via the anus to the level of the mid-colon. Within 60 mins colonic and somatic hypersensitivity was evident.
Colonic Sensitivity Assessment: Visceromotor responses (VMR) to colorectal distension (CRD) were measured by counting the number of abdominal contractions in response to increasing levels of CRD (0-60 mmHg). On the day of the colonic sensitivity assessment, a minor surgical procedure was performed to attach a strain gauge force transducer onto the abdominal oblique muscle and attached via an adapter cable to a Grass Model 7 Polygraph. The cable was connected to a Model 7P1 Low-Level DC Pre-Amp. The Pre-Amp was set at 0.02 mV/cm sensitivity and was connected to a Model 7DA DC Driver Amp with sensitivity set at […]. A 5 cm latex balloon was inserted into the distal colon. The balloon cannula was connected to a Distender Series IIR barostat (G & J Electronics Inc.) for controlled, isobaric inflation of the balloon and CRD using constant pressure (isobaric) tonic distensions were conducted at 0, 20, 40 and 60 mmHg. Each pressure was maintained for a period 10 min. during which time the number of abdominal muscle contractions were counted. A 10 min. recovery period was allowed between the each distension.
Test Compounds: Following surgery, rats were pre-dosed with Palonosetron (1-hr pre-dose), Netupitant (2-hr pre-dose) or methyl cellulose vehicle. Palonosetron and Netupitant were supplied by Helsinn Healthcare Inc. and were stored at 4° C. until prepared for dosing as a suspension in 1% methyl cellulose solution. The drug suspensions were prepared so that each rat received an oral dosing volume of 0.5 ml per 100 g body weight for doses of 0.001, 0.01, 0.1 or 1 mg/kg. Compounds were prepared fresh on the day of use.
Statistical Analysis: To determine statistical significance between multiple control and treatment groups, data was compared using one-way ANOVA followed by a Bonferroni post-test. Results were deemed significant when p-values were less than 0.05.

[2] = test system: acetic acid (AA)-induced somatic hypersensitivity in a rodent model; assay: Somatic sensitivity assessment: von Frey hind paw withdrawal after intracolonic acetic acid; settings: rats; for inhibition of AA-induced somatic hypersensitivity, agent alone: oral, effective dose not given (0.001-1 mg/kg dosed); for effect of 0.001 mg/kg dose alone on somatic hypersensitivity: 0.001 mg/kg oral, agent alone
Description: Induction of Acute Visceral and Somatic Hypersensitivity: Visceral and somatic hypersensitivity were induced by infusing dilute (1.5 ml at 0.6%) acetic acid (AA) into the rat colon via a catheter (Intramedic PE 90 tubing) inserted via the anus to the level of the mid-colon. Within 60 mins colonic and somatic hypersensitivity was evident. Somatic Sensitivity Assessment: Von Frey filaments were used to determine the level of somatic sensitivity in all animals receiving intracolonic infusion of AA. The Von Frey instrument measures the level of somatic sensitivity by recording the minimal force required to elicit hind paw withdrawal. The animals were placed in a mesh-bottomed Von Frey caging apparatus and a nylon filament was steadily pushed against the rat's foot pad until withdrawal of the hind paw. The force in grams which elicited hind paw withdrawal was then recorded. Test Compounds: Following surgery, rats were pre-dosed with Palonosetron (1-hr pre-dose), Netupitant (2-hr pre-dose) or methyl cellulose vehicle. Palonosetron and Netupitant were supplied by […] Healthcare Inc. and were stored at 4° C. until prepared for dosing as a suspension in 1% methyl cellulose solution. The drug suspensions were prepared so that each rat received an oral dosing volume of 0.5 ml per 100 g body weight for doses of 0.001, 0.01, 0.1 or 1 mg/kg. Compounds were prepared fresh on the day of use. Statistical Analysis: To determine statistical significance between multiple control and treatment groups, data was compared using one-way ANOVA followed by a Bonferroni post-test. Results were deemed significant when p-values were less than 0.05.

[3] = test system: spinal dorsal horn neurones in SNL rats; assay: Electrophysiology: mechanical, heat and brush evoked dorsal horn neural responses; settings: mean ± S.E.
Description: Electrophysiology experiments were conducted on post-operative days 14-17 in anaesthetised rats.
We recorded the evoked responses of dorsal horn lamina V-VI neurones to stimulation of the peripheral receptive field with: • a train of 16 electrical pulses at 3×C-fibre threshold • mechanical von Frey filaments of increasing force—vf 2 g, 8 g, 26 g and 60 g applied to the centre of the receptive field for 10 seconds • heat—40, 45 and 48° C. applied to the centre of the receptive field by a constant water jet for 10 seconds
Following 3 stable baseline responses, 0.03 mg/kg Palonosetron and 0.10 mg/kg Netupitant were administered into the scruff of the neck by subcutaneous injection. Drug effects were followed for two hours with tests carried out at 10, 30, 50, 70, 90 and 110 minutes post injection.

SNL rats = assay: Behavioural assessment of the neuropathic state: paw withdrawal to von Frey filaments and acetone; settings: for Paw Withdrawal Frequency (PWD), 2 g vF Filament / Paw Withdrawal Frequency (PWD), 6 g vF Filament / Paw Withdrawal Frequency (PWD), Cooling Acetone: mean ± S.E.
From the text: A model of experimental neuropathic pain with symptoms of allodynia and hyperalgesia was established by tightly ligating the L5 and L6 spinal nerves as previously described (Kim and Chung, 1992). Within a sterile theatre, rats weighing approximately 130-150 g were anaesthetised (1:1 O2:N2O, 3% halothane for induction, 1% maintenance) and following a small left-side incision at approximately L4-S2, paraspinal muscle and fat was removed from spinous processes. Part of the L6 traverse process was clipped with rangeurs to expose the parallel-lying L4 and L5 spinal nerves. The L5 nerve was isolated and hooked with a finely-pulled glass rod and tightly tied with non-absorbable 6-0 silk thread distal to the dorsal root ganglion (and proximal to the formation of the sciatic nerve). The L6 nerve was then hooked from under the sacrum and tied in a similar way. Haemostasis was confirmed and the wound was sutured with 3-0 absorbable silk. The surrounding skin was pulled together and secured over the injury with wound clips. Rats recovered in an incubator, and once it had been confirmed that they had no observable motor impairment in their left hindpaw, were re-housed in cages as above. Sham surgery was performed in the same environment and under the same conditions except nerves were not hooked or ligated.
On post-operative days 2, 7, 9 and 14, behavioural signs of punctate mechanical and cooling hypersensitivity were assessed in the left ipsilateral hindpaw relative to the right contralateral hindpaw in awake and alert rats. Rats were individually placed in clear acrylic cubes on an elevated floor of wire mesh, and following a period of acclimation (30 minutes), mechanical sensitivities were determined by paw withdrawal to von Frey (vF) filaments with bending forces 2 g and 6 g (tested in consecutive, ascending force). Each filament was applied to the plantar surface of the paw for ˜2-3 s with enough force to cause buckling, and for each animal this was repeated 10 times at set positions on each paw. […] Cold hypersensitivity was assessed by applying a drop of acetone to each paw 5 times during each testing period, with each application separated by an interval of at least 5 minutes. Withdrawal frequency was quantified as =(number of foot withdrawals/10 or 5 trials as appropriate).

## Cl.O=C1c2cccc3c2[C@H](CCC3)CN1[C@@H]1CN2CCC1CC2 [Palo, (3aS)-2-[(S)-1-Azabicyclo[2.2.2]oct-3-yl]-2,3,3a,4,5,6-hexahydro-1-oxo-1Hberiz[de]isoquinoline]
[1]
  inhibition of AA-induced colonic hypersensitivity, agent alone: significantly inhibited
  effect of 0.001 mg/kg dose alone on colonic and somatic sensitivity: non-effective
[2]
  inhibition of AA-induced somatic hypersensitivity, agent alone: significantly inhibited
  effect of 0.001 mg/kg dose alone on somatic hypersensitivity: non-effective
[3]; Palo 0.03 mg/kg s.c.
  Brush-Evoked, Number of Action Potentials: 144 ± 59
  Heat-Evoked 40° Celsius, Number of Action Potentials: 136 ± 58
  Heat-Evoked 45° Celsius, Number of Action Potentials: 380 ± 187
  Heat-Evoked 48° Celsius, Number of Action Potentials: 816 ± 101
  Mechanically-Evoked 8 g vF Filament, Number of Action Potentials: 211 ± 42
  Mechanically-Evoked 26 g vF Filament, Number of Action Potentials: 539 ± 17
  Mechanically-Evoked 60 g vF Filament, Number of Action Potentials: 799 ± 192
SNL rats; FIG. 2, seen in the SNL rats only
  effect on the number of paw withdrawals to vF 2 g, vF 6 g and acetone: dose related reduction
SNL rats; SNL rats, Palo 0.03 mg/kg s.c.
  Paw Withdrawal Frequency (PWD), 2 g vF Filament: 2.8 ± 0.8
  Paw Withdrawal Frequency (PWD), 6 g vF Filament: 5.2 ± 1.5
  Paw Withdrawal Frequency (PWD), Cooling Acetone: 1.2 ± 0.4
SNL rats; SNL rats, Palo 0.3 mg/kg s.c.
  Paw Withdrawal Frequency (PWD), 2 g vF Filament: 3.1 ± 0.7
  Paw Withdrawal Frequency (PWD), 6 g vF Filament: 4.1 ± 1.3
  Paw Withdrawal Frequency (PWD), Cooling Acetone: 1.2 ± 0.5
SNL rats; SNL rats, Palo 3 mg/kg s.c.
  Paw Withdrawal Frequency (PWD), 2 g vF Filament: 1.4 ± 0.6
  Paw Withdrawal Frequency (PWD), 6 g vF Filament: 1.1 ± 0.4
  Paw Withdrawal Frequency (PWD), Cooling Acetone: 1.9 ± 0.3

## Cc1ccccc1-c1cc(N2CCN(C)CC2)ncc1N(C)C(=O)C(C)(C)c1cc(C(F)(F)F)cc(C(F)(F)F)c1 [Netu, 2-[3,5-bis(trifluoromethyl)phenyl]-N,2-dimethyl-N-[4-(2-methylphenyl)-6-(4-methylpiperazin-1-yl)pyridin-3-yl]propanamide]
[1]
  inhibition of AA-induced colonic hypersensitivity, agent alone: significantly inhibited
  effect of 0.001 mg/kg dose alone on colonic and somatic sensitivity: non-effective
[2]
  inhibition of AA-induced somatic hypersensitivity, agent alone: significantly inhibited
  effect of 0.001 mg/kg dose alone on somatic hypersensitivity: non-effective
[3]; Netu 0.1 mg/kg s.c.
  Brush-Evoked, Number of Action Potentials: 310 ± 40
  Heat-Evoked 40° Celsius, Number of Action Potentials: 298 ± 72
  Heat-Evoked 45° Celsius, Number of Action Potentials: 381 ± 82
  Heat-Evoked 48° Celsius, Number of Action Potentials: 495 ± 186
  Mechanically-Evoked 8 g vF Filament, Number of Action Potentials: 190 ± 42
  Mechanically-Evoked 26 g vF Filament, Number of Action Potentials: 390 ± 56
  Mechanically-Evoked 60 g vF Filament, Number of Action Potentials: 486 ± 75
SNL rats; FIG. 7, SNL rats, 1 mg/kg
  effect on behavioral hypersensitivities (withdrawal responses to vF2 g, vF6 g, acetone): appears to inhibit behavioral hypersensitivities
SNL rats; SNL rats, Netu 0.1 mg/kg s.c.
  Paw Withdrawal Frequency (PWD), 2 g vF Filament: 4.1 ± 1.0
  Paw Withdrawal Frequency (PWD), 6 g vF Filament: 6.7 ± 1.8
  Paw Withdrawal Frequency (PWD), Cooling Acetone: 1.9 ± 0.3
SNL rats; SNL rats, Netu 1 mg/kg s.c.
  Paw Withdrawal Frequency (PWD), 2 g vF Filament: 3.8 ± 1.2
  Paw Withdrawal Frequency (PWD), 6 g vF Filament: 6.2 ± 1.5
  Paw Withdrawal Frequency (PWD), Cooling Acetone: 2.7 ± 0.5
SNL rats; SNL rats, Netu 10 mg/kg s.c.
  Paw Withdrawal Frequency (PWD), 2 g vF Filament: 3.9 ± 1.1
  Paw Withdrawal Frequency (PWD), 6 g vF Filament: 5.9 ± 1.0
  Paw Withdrawal Frequency (PWD), Cooling Acetone: 2.0 ± 0.4
SNL rats; agent alone
  effect in animal models of allodynia/neuropathic pain, agent alone: zero or minimal effect
